Measurements: paper PMC7651685 (Psychopharmacology, 2020)
Several values for one entry are separate records, joined by “and”; a condition that tells them apart may be missing. Equal entries are not always repeated. Structures can show the parent of a compound that is named as a salt. Where two headings read alike, the source gives them in different places.

Tests used:
plasma protein = settings: cited from earlier work
[1] = Tolerability and vital signs after i.v. administration; assay type: in vivo, rhesus macaques; settings: for Changes in heart rate, respiratory rate, blood pressure, oxygen saturation and temperature compared with baseline: after i.v. administration, data not shown; for Tolerability of i.v. administration: all doses examined
Experimental: PET experiments within an animal were spaced at least 2 weeks apart to allow recovery from anesthesia. Animals were fasted for 18–24 h prior to each PET scan experiment. At 2–2.5 h before radiotracer injection, the animal was anesthetized with ketamine (10–15 mg/kg) and glycopyrrolate 0.01 mg/kg i.m., transferred to the PET camera, and intubated with an endotracheal tube for continued anesthesia with 2.0–2.5% isoflurane administered through a rebreathing circuit. An intravenous line was placed and used for injection of radiotracer and administration of the drug. A heated water blanket was used to maintain normal body temperature (37 °C). Vital signs, including heart rate, blood pressure, respiration rate, oxygen saturation, and body temperature, were monitored approximately every 1 to 15 min during the study (data not shown).
Animals tolerated i.v. administration of DAS or MPH at all doses examined.

[2] = cited from earlier work
[3] = Plasma levels of DAS or MPH during the displacement studies; assay type: in vivo, rhesus macaques (Macaca mulatta); settings: for Average plasma (infusion period): individual animals A, B
Experimental: Venous blood samples (1 ml) were collected during the respective bolus and 4-step infusion displacement studies to measure the plasma levels of either DAS or MPH. Blood samples were collected in K3 EDTA vials, processed for plasma, frozen, and stored at − 20 °C until required for HPLC analysis of either DAS or MPH levels.

[4] = Extrapolated permeability and half-time to reach brain equilibrium (equation of Liu et al.)
Source text: While lipid solubility and protein binding influences brain penetration, it appears that it is the combination of these two properties that influences the rate of brain penetration of a drug (Liu et al [2005]). […] The half-time to reach brain equilibrium (t1/2 equil) can be estimated by the following equation:
t1/2 equil = Vbln2/(PS.fu,brain)
where Vb is brain volume, PS is the permeability surface area product, P is the permeability rate, S is the surface area and fu is the unbound (free) drug brain concentration.
For comparative purposes between MPH and DAS, we can assume Vb and surface area are the same for both drugs, and the above equation becomes: t1/2equil∝1/P.fu,brain
As mentioned above, plasma protein binding of DAS and MPH are ~ 0.97 (or ~ 97%) and ~ 0.14 (or 14%) respectively, and the free plasma concentration of DAS is 0.03 and for MPH, it is 0.86. Since free drug plasma concentration is equal to free drug brain concentration, we can apply the free drug plasma concentration values of DAS and MPH together with the extrapolated permeability for DAS (12P) and MPH (P) to approximate t1/2 equil for both drugs, i.e.,

In the case of `COC(=O)C(c1ccccc1)C1CCCCN1` (racemic) [MPH, (±)-Methyl α-Phenyl-α-(2-piperidyl)acetate hydrochloride, reference compound], the Plasma protein binding (plasma protein; ref Faraj et al. [1974]) is listed as under 14%, the “Changes in heart rate, respiratory rate, blood pressure, oxygen saturation and temperature compared with baseline” value [1] is listed as “No changes outside physiologically accepted limits” and the “Tolerability of i.v. administration” value [1] is listed as “tolerated”. For the same compound, the “Time to peak (oral absorption)” value ([2]; oral, ref Koblan et al. [2016]) was 2 to 3 h, the “Cmax, Mean ± SD” value ([3]; MPH 0.1 mg/kg i.v. 3 min bolus, group mean) was 169.2 ± 28.4 ng/mL and the Cmax ([3]; MPH 0.1 mg/kg i.v. 3 min bolus, individual animals A-D) was 137 ng/mL and 177 ng/mL and 117 ng/mL. For the same compound, the Cmax ([3]; MPH 0.5 mg/kg i.v. 3 min bolus, individual animals A-D) was 823 ng/mL and 609 ng/mL and 729 ng/mL, the “Average plasma (infusion period)” value ([3]; MPH 4.3 mg, bolus plus 4-step infusion over 40 min) was 111.9 ng/mL and 91.52 ng/mL and the Cmax ([3]; rhesus monkey, plasma, iv, 0.1 mg/kg, MPH 0.1 mg/kg i.v. 3 min bolus, group mean, read-out: Cmax, Mean ± SD) was 169 ± 28.4 ng/mL. The Cmax ([3]; rhesus monkey, plasma, iv, 0.5 mg/kg, MPH 0.5 mg/kg i.v. 3 min bolus, group mean, read-out: Cmax, Mean ± SD) was 823 ± 111 ng/mL, the Cmax ([3]; rhesus monkey, plasma, iv, 0.5 mg/kg, MPH 0.5 mg/kg i.v. 3 min bolus, individual animals A-D, read-out: Cmax) was 1130 ng/mL and the “Faster than DAS in reaching brain equilibrium” value ([4]; MPH relative to DAS, from t1/2equil) was over 2 fold.

For `N[C@@H]1CC[C@@H](c2ccc(Cl)c(Cl)c2)c2ccccc21` [DAS, (1R,4S)-4-(3,4-dichlorophenyl)-1,2,3,4-tetra-hydronaphthalen-1-amine], the Plasma protein binding (plasma protein; Data-on-file, ref Sunovion report 360–455) is listed as ~ 97%, the “Plasma protein binding (fraction)” value (plasma protein; as fraction, Sunovion report 360–455 (DAS)) is listed as ~ 0.97 and the “Changes in heart rate, respiratory rate, blood pressure, oxygen saturation and temperature compared with baseline” value [1] is listed as “No changes outside physiologically accepted limits”. The “Tolerability of i.v. administration” value [1] was “tolerated”, the “t1/2 (elimination)” value ([2]; human, in vivo, po) was 47 to 77 h and the tmax ([2]; oral administration in humans) was 10 to 12 h. The Cmax ([3]; DAS 0.1 mg/kg i.v. 3 min bolus, individual animals A-D) was 87.9 ng/mL and 25.9 ng/mL and 102 ng/mL and 54.6 ng/mL, the Cmax ([3]; DAS 0.2 mg/kg i.v. 3 min bolus, individual animals A-D) was 213 ng/mL and 123 ng/mL and the “Average plasma (infusion period)” value ([3]; DAS 6.0 mg, bolus plus 4-step infusion over 40 min) was 34.86 ng/mL and 32.38 ng/mL. For the same compound, the “Average plasma (infusion period), Mean” value ([3]; DAS 6.0 mg, bolus plus 4-step infusion over 40 min, mean of two animals) was 33.62 ng/mL, the Cmax ([3]; rhesus monkey, plasma, iv, 0.1 mg/kg, DAS 0.1 mg/kg i.v. 3 min bolus, group mean, read-out: Cmax, Mean ± SD) was 71.9 ± 23.4 ng/mL and the Cmax ([3]; rhesus monkey, plasma, iv, 0.2 mg/kg, DAS 0.2 mg/kg i.v. 3 min bolus, group mean, read-out: Cmax, Mean ± SD) was 175 ± 26.9 ng/mL. The Cmax ([3]; rhesus monkey, plasma, iv, 0.2 mg/kg, DAS 0.2 mg/kg i.v. 3 min bolus, individual animals A-D, read-out: Cmax) was 190 ng/mL and the “t1/2equil (half-time to reach brain equilibrium), proportional to” value ([4]; 1/(P.fu,brain) with extrapolated permeability (DAS 12P, MPH P) and free plasma fraction) was 2.77 P.
